For orientation: Kd means a measure of binding affinity in units of concentration.

In series [1] the test system is actin cytoskeleton of SVEC cells. Briefly: Actin cytoskeleton staining with phalloidin in SVEC cells. Type of series: cell-based, mouse. To be noted: 2.5 μM Latrunculin A, 3 hours. The text has this: (§1) Microfilaments were disrupted in all cell types upon treatment. (Bar=8 μm)
(§2) The actin cytoskeleton of all four cell types was stained with phalloidin to study the differential induction of endothelial cell subtypes by latrunculin A (FIG. 12). […] Observation of bEND5 and Py4.1 cells highlighted a difference in their actin cytoskeleton in the steady state (FIGS. 12A and 12C). Py4.1 cells had greater amounts of cortical actin. This could account for their decreased susceptibility to fenestrae formation compared to bEND5 cells, a discrepancy particularly apparent during induction with cytochalasin B.

Series [2] relates to actin cytoskeleton of HUVEC cells. Briefly: Actin cytoskeleton staining with phalloidin in HUVEC cells. Type of series: cell-based, human. To be noted: 2.5 μM Latrunculin A, 3 hours.
Source text: as §1, §2

Another series concerns SVEC cells. The series is described as follows: Fenestrae induction in SVEC cells, wholemount TEM. Type of series: cell-based, mouse. To be noted: 2.5 μM Latrunculin A, 3 hours. Here is the method: (§3) FIG. 9 is a graph regarding fenestrae induction in different endothelial cell types. The potential of different endothelial cell lines to form fenestrae under the optimal parameters of induction was assessed using wholemount TEM. bEND5, Py4.1, SVEC, and HUVEC cells were treated for 3 hours with vehicle (V) or 2.5 μM Latrunculin A (Lat), and the number of fenestrae was estimated as a fraction of the plasma membrane area occupied by sieve plates. Data points represent the average of two experiments, with 36 images captured per sample in each experiment. Error bars represent standard deviation between the two experiments.
(§4) A panel of endothelial cell subtypes was assessed for their fenestrae-forming potentials. Three mouse endothelial lines (bEND5, Py4.1, SVEC) and one human primary endothelial line (HUVEC) were cultured on gelatin-coated grids, treated with latrunculin A for 3 hours, and examined by wholemount TEM (FIG. 8). bEND5 and Py4.1 cells are brain endothelomas and ear/tail endotheliomas respectively, both originating from hemangiomas of Polyoma virus—infected mice. SVECs are lymph node endothelial cells infected with SV40 virus. HUVECs were chosen because of their widespread use and primary cell nature. […]

Series [3] has as its system actin cytoskeleton of Py4.1 cells. Briefly: Actin cytoskeleton staining with phalloidin in Py4.1 cells. Type of series: cell-based, mouse. As to conditions: 2.5 μM Latrunculin A, 3 hours.
Source text: as §1, §2

Series [4] deals with actin microfilaments of bEND5 cells. The series is described as follows: Actin microfilament staining with Alexa546-conjugated phalloidin, time-course in bEND5 cells. Type of series: cell-based, mouse. To be noted: for earliest dramatic changes in the organization of actin, time of treatment / time until which cortical actin persisted / was dismantled / time within which stress fibers were reduced: 10 μM Cytochalasin B or 2.5 μM Latrunculin A. On the procedure: Stress fibers were reduced within the first 20 minutes, whereas cortical actin persisted until about 60 minutes of treatment. At 120 minutes, individual actin bundles were spread around the cytoplasm. (Bar=8 μm)
FIG. 11 show images of bEND5 cells that were treated with 2.5 μM Latrunculin A for different periods of time, and actin microfilaments were stained with Alexa546-conjugated phalloidin. Stress fibers were reduced within the first 20 minutes, while complete disruption occurs at 60-120 minutes. Individual actin foci, small filaments, and actin-rich filopodia were present after 180 minutes of treatment. (Bar=8 μm)
as §1
In parallel to the SEM analysis, bEND5 cells subjected to cytochalasin B and latrunculin A time-courses were stained for the presence of actin microfilaments using phalloidin (FIGS. 10 and 11). Untreated cells contained an extensive network of stress fibers spanning their cytoplasm. Dramatic changes in the organization of actin were however observed as early as after 10 minutes of treatment with either agent. […] At 120 minutes, the disassembled actin was concentrated in aggregates throughout the cytoplasm, while large areas remained actin-deficient. In cells treated with latrunculin A (FIG. 11) the disruption of stress fibers was faster, and the cortical cytoskeleton was dismantled within the first 20 minutes. Overall cells had more and larger actin-depleted areas, and the remainder of actin appeared irregularly arranged in short filaments around the cytoplasm or in structures resembling filopodia.

A further series relates to bEND5 cells. Briefly: Fenestrae induction in bEND5 cells, quantified by stereology on SEM or wholemount TEM images. As to conditions: for fenestrae formation: 2.5 μM Latrunculin A, 3 hours, wholemount TEM; for induction of fenestrae compared to the untreated control: cytochalasin B (10 nM) or Latrunculin A (2.5 nM) alone; for induction of fenestrae compared to the untreated control / maximum number of fenestrae: SEM; for maximum number of fenestrae: cytochalasin B at 2 hours, latrunculin A after 3 hours; for time of treatment at maximum number of fenestrae: single agent, SEM time-course. The text has this: Images were printed, and sieve plates were marked (solid line). A grid (20 mm×20 mm) was overlaid over each image and the number of grid points falling within the areas delineated or on any cellular structure were counted. Fenestrae abundance was estimated based on the following calculation: Plasma membrane coverage (or fraction of the plasma membrane occupied by sieve plates)=grid points falling on sieve plates/grid points falling on any cell area. To express abundance in terms of the number of fenestrae per area of plasma membrane, the density of fenestrae within sieve plates was calculated and multiplied by the frequency of sieve plates as follows: number of fenestrae per square μm=density of fenestrae×plasma membrane coverage.
A quantitative assessment of fenestrae numbers was achieved by applying Stereology to SEM or wholemount TEM images (FIG. 3). Quantitative assessment comprised overlaying a lattice on top of an image and counting points falling on fenestrated and on non-fenestrated areas of the plasma membrane. Amounts of fenestrae were routinely expressed as fractions of plasma membrane area that was fenestrated (point counts falling on fenestrae divided by point counts falling on any plasma membrane area). To compare these numbers with measurements in previous in vivo or in vitro studies, the density of individual fenestrae within sieve plates was estimated, which when multiplied by the fraction of plasma membrane coverage equaled the number of fenestrae per μm^2 of plasma membrane.
Coverslips and dishes were coated with 1% gelatin (Sigma) solution in PBS for 30 minutes at room temperature. Endothelial cells were seeded overnight at a density equivalent to 1.5×10^6 cells per 100 mm dish. Cultures were induced with Cytochalasin B (Sigma) at 10 μM for 2 hours, with Latrunculin A (Molecular Probes) at 2.5 μM for 3 hours, or with a combination of recombinant mouse 75 ng/ml VEGF (R&D systems) for 6-72 hours and 10 μM Cytochalasin B for 2 hours. Cells were processed for biochemistry or morphology immediately after the end of the induction.

The subject of a further series is HUVEC cells. Briefly: Fenestrae induction in HUVEC cells, wholemount TEM. Type of series: cell-based, human. As to conditions: 2.5 μM Latrunculin A, 3 hours. On the procedure:
as §3, §4

The target of the next series is actin monomers. As to conditions: 1:1 complexes with actin monomers; cited from earlier work.
For another series, the system named is Py4.1 cells. The series is described as follows: Fenestrae induction in Py4.1 cells, wholemount TEM. Type of series: cell-based, mouse. To be noted: for fenestrae formation: 2.5 μM Latrunculin A, 3 hours, wholemount TEM. On the procedure: as §3
A panel of endothelial cell subtypes was assessed for their fenestrae-forming potentials. Three mouse endothelial lines (bEND5, Py4.1, SVEC) and one human primary endothelial line (HUVEC) were cultured on gelatin-coated grids, treated with latrunculin A for 3 hours, and examined by wholemount TEM (FIG. 8). bEND5 and Py4.1 cells are brain endothelomas and ear/tail endotheliomas respectively, both originating from hemangiomas of Polyoma virus—infected mice. SVECs are lymph node endothelial cells infected with SV40 virus. HUVECs were chosen because of their widespread use and primary cell nature. […] The response of bEND5 and Py4.1 cells differed both in magnitude and in relation to the respective untreated controls. bEND5 cells harbored greater numbers of fenestrae overall, but contained some background fenestrae in the un-induced state.

For series [5], the system named is primary liver endothelial cells. To be noted: cited from earlier work.
In a further series the target is actin filaments. To be noted: barbed, fast growing end of actin filaments; cited from earlier work.
The test system of series [6] is normally non-fenestrated anatomical sites. To be noted: topical application or intradermal injection; cited from earlier work.

Some results are limits rather than exact numbers.

Take `C/C1=C/C(=O)O[C@@H]2C[C@@H](CC[C@H](C)/C=C\C=C\CC1)O[C@@](O)([C@@H]1CSC(=O)N1)C2` [latrunculin A]: the “state of the actin cytoskeleton after treatment” value in [1] is “completely disrupted”; in [2] it was “completely disrupted”; in [3] it was “completely disrupted”; in series [4] (2.5 μM Latrunculin A, 3 hours) it was “completely disrupted”. In addition, the fenestrae formation result in the series with SVEC cells was “no indication of fenestrae”; with SVEC cells (listed as Latrunculin A), “No fenestrae”; in the series with bEND5 cells it was “susceptible to fenestrae formation”; in the series with bEND5 cells (listed as Latrunculin A) it was “Abundant fenestrae”; in the series with HUVEC cells, “only very few”; with HUVEC cells (listed as Latrunculin A), “rare fenestrae”. Also, the results for the fenestrae formation result with Py4.1 cells and in the series on Py4.1 cells (listed as Latrunculin A) were “susceptible to fenestrae formation” and “Abundant fenestrae”, respectively. In series [4] (2.5 μM Latrunculin A), the “time of complete disruption of actin microfilaments” value was in the range of 60 to 120 min. The “earliest dramatic changes in the organization of actin, time of treatment” value in [4] is 10 min. Besides, the “time until which cortical actin persisted / was dismantled” value in series [4] was not above 20 min. The “time within which stress fibers were reduced” value in [4] was not above 20 min. In the series with bEND5 cells, the “induction of fenestrae compared to the untreated control” value is approximately 100 fold. In addition, the results for the “maximum number of fenestrae” value with bEND5 cells and in the series on bEND5 cells (listed as Latrunculin A) were “up to 5.3 fenestrae per μm^2” and 5.3 fenestrae per μm^2, respectively. Moreover, the “potency in inducing fenestrae, comparison of the two agents” value with bEND5 cells (even when used at lower concentrations) is given as “more potent in inducing fenestrae than cytochalasin B”. Further, in the series on bEND5 cells, the “time of treatment at maximum number of fenestrae” value is 3 h. For the same molecule, the “viability of the cells” value in the series with bEND5 cells (treatments extended over 3 hours) is reported as “reduced considerably”. The Kd at actin monomers is approximately 100 nM.

For the molecule `CO[C@H]1C[C@H](CC[C@H](C)[C@H](O)[C@H](C)[C@H]2OC(=O)/C=C/C(C)=C/C[C@H](O)C[C@@H]3C=CC[C@@H](C[C@H](OC)[C@@H](C)[C@@H](O)C[C@@H](O)[C@H](C)[C@@H]([C@@H](C)[C@@H](O)[C@@H](C)CC[C@H]4C[C@H](OC)C[C@H](C)O4)OC(=O)/C=C/C(C)=C/C[C@H](O)C[C@@H]4C=CC[C@@H](C[C@H](OC)[C@@H](C)[C@@H](O)C[C@@H](O)[C@@H]2C)O4)O3)O[C@@H](C)C1` [swinholide A], the “induction of fenestrae over untreated control” value in series [5] is “less than 3 fold”. Besides, in [5] (untreated control contained over 3 fenestrae per μm^2), the fenestrae levels entry is given as “up to 9.1 per μm^2”.

`C=C1[C@@H](C)[C@H]2[C@H](Cc3ccccc3)NC(=O)[C@]23OC(=O)/C=C/[C@H](O)CCC[C@@H](C)C/C=C/[C@H]3[C@@H]1O` [cytochalasin B]: in series [4], the “earliest dramatic changes in the organization of actin, time of treatment” value came out at 10 min; the “time until which cortical actin persisted / was dismantled” value was “about 60 minutes”; the “time within which stress fibers were reduced” value was not above 20 min. In the series on bEND5 cells, the “induction of fenestrae compared to the untreated control” value is recorded as approximately 100 fold, the “maximum number of fenestrae” value was found to be 3.5 fenestrae per μm^2 and the “time of treatment at maximum number of fenestrae” value was found to be 2 h. The “change in the number of fenestrae at 3 hours of treatment” value in the series with bEND5 cells (versus the maximum at 2 hours) is “slight decrease”. In addition, on actin filaments, the Kd was 10 to 100 nM. In addition, the “response of Py4.1 cells to cytochalasin B (fenestrae formation)” value in the series with Py4.1 cells was “responsive”.

For VEGF, the “time within which fenestrations are induced” value in series [6] is not above 10 min. Besides, the “fenestrae induction, cells treated only with VEGF” value in the series with bEND5 cells (Cytochalasin B omitted from the induction cocktail) was “minimal induction over background”.

Values taken from patent US20070184549A1, “Method of inducing fenestrae” (priority 2004, published 2007).
